Measurements taken from PMC7230232, “Secondary Metabolites from the Culture of the Marine-derived Fungus Paradendryphiella salina PC 362H and Evaluation of the Anticancer Activity of Its Metabolite Hyalodendrin” (Marine Drugs, 2020).
“And” between values parts separate entries of the source, which are not always exact repeats. Equal entries are not always repeated. Where two headings read alike, the source gives them in different places.

Assays:
3T3-F442A cells = test: MTT cell viability assay, 3T3-F442A pre-adipocytes; format: cell-based, murine; conditions: Mus musculus
Method: (§1) Cellular viability was determined by the MTT (methylthiazolyldiphenyl-tetrazolium bromide) assay. Briefly, cells were exposed to the indicated concentrations of crude extracts or compounds 1–4 for five doubling times and then incubated for 3 h at 37 °C with MTT. Formazan crystals were then dissolved in DMSO and optical density measured at 570 nm in a microplate reader. The half-maximal inhibitory concentration (IC50) was determined. Values given for crude extracts are averages of at least two experiments done in duplicate. IC50 values calculated for the four isolated compounds and the commercially available 4-hydroxy-tamoxifen (Sigma-Aldrich) are averages of at least three experiments done in duplicate.

DLD1 = test: MTT cell viability assay, DLD1; format: cell-based; conditions: Homo sapiens, DLD-1; colon
Method: as §1

HCT116 = test: MTT cell viability assay, HCT116; format: cell-based; conditions: Homo sapiens, HCT-116; colon
Method: as §1

HCT116 oxa = test: MTT cell viability assay, HCT116 oxa; format: cell-based; conditions: Homo sapiens, HCT-116; colon; oxaliplatin resistant
Method: as §1

LOVO = test: MTT cell viability assay, LOVO; format: cell-based; conditions: Homo sapiens, colon
Method: as §1

HeLa = test: MTT cell viability assay, HeLa; format: cell-based; conditions: Homo sapiens, cervix
Method: as §1

C19 = test: MTT cell viability assay, C19 immortalized fibroblasts; format: cell-based; conditions: Homo sapiens, Fibroblast; normal; fibroblastic
Method: as §1

[1] = molecular target: cytoplasmic GAPDH from Arabidopsis thaliana (AtGAPDH) (Arabidopsis thaliana, UniProt P25858); test: Covalent adduct formation with GAPDH by MALDI-TOF mass spectrometry; format: binding; conditions: data not shown
Chain of cytoplasmic GAPDH from Arabidopsis thaliana (AtGAPDH) (P25858 whole entry): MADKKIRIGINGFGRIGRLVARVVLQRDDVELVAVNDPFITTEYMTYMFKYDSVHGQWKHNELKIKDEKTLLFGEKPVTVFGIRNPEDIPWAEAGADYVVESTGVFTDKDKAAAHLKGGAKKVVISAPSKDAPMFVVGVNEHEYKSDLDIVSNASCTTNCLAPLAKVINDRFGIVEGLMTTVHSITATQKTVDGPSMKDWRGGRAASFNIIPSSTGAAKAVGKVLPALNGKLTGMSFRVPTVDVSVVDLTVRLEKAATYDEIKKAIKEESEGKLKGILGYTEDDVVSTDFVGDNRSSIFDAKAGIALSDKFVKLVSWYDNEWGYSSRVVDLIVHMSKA
From the text: Compound 3 is a member of the epidithiodioxopiperazines, a class of natural products characterized by a sulfur-bridged dioxopiperazine that is believed to play an important role in their biological activity. […] The role of the sulfur-bridged dioxopiperazine in the activity of epidithiodioxopiperazines has been attributed to two main mechanisms: (1) mixed disulfide formation with proteins and (2) production of reactive oxygen species (ROS) upon the formation of the disulfide bond after reduction by a cellular reductant. […] To test whether 3 might act through these two processes, we first assessed its propensity to form in vitro covalent adducts with the glycolytic glyceraldehyde-3-phosphate dehydrogenase enzyme (GAPDH). GAPDH is a widely used model protein to study molecular mechanism of thiol-based post-translational modifications as its catalytic cysteine is prone to multiple reversible and irreversible oxidation states. […] Trxs are small ubiquitous thiol/disulfide oxidoreductases with multiple recognized roles in cellular processes and human diseases including cancers. However, since mammal NTR is a selenoprotein that is not easily produced recombinantly, we used here the thioredoxin system from the eukaryotic yeast Saccharomyces cerevisiae (Figure 6). […]

MCF7-Sh-WISP2 cells = test: γ-H2AX foci immunofluorescence; format: cell-based, human; conditions: 1 µM

With `CN1C(=O)[C@@]2(Cc3ccccc3)SS[C@]1(CO)C(=O)N2C` [Compound 3, (3R, 6R) Hyalodendrin] the IC50 (3T3-F442A cells; read-out: IC50 3T3-F442A) was 0.099 µg/mL and 300 nM, the IC50 (3T3-F442A cells; read-out: IC50 3T3F442A) was 0.305 ± 0.0042 µM and the IC50 (DLD1) was 0.04 ± 0.0058 µM. The IC50 (HCT116) was 0.048 ± 0.0093 µM, the IC50 (HCT116 oxa) was 0.0257 ± 0.0042 µM and the IC50 (LOVO) was 0.0734 ± 0.0164 µM. For the same molecule, the IC50 (HeLa) was 0.069 ± 0.0099 µM, the IC50 (C19) was 0.253 ± 0.0205 µM and the “mixed disulfide formation with catalytic cysteine of AtGAPDH (mass shift)” value [1] was “not able to form a mixed disulfide”. The γ-H2AX signal (MCF7-Sh-WISP2 cells; 24 and 48 h) was “punctuated labeling in their nucleus” and the γ-H2AX signal (MCF7-Sh-WISP2 cells; 3 h) was “no γ-H2AX signal could be detected”.
